Results: patent US10420844B2, “Peptide pharmaceuticals” (Mederis Diabetes LLC, priority 2011, dated 2019)

Key:
mu opioid receptor = target: T1, mu opioid receptor (Homo sapiens, UniProt P35372); assay: mu opioid receptor cellular assay (MOP, agonist and antagonist mode), cAMP readout, Cerep; type: cell-based
T1 construct: Cerep SA (contract research organization)
Description: (§1) Compounds were weighed precisely in an amount of approximately 2 mg and assayed in standard cellular assays by the contract research organization Cerep, Inc. (Pullman, Wash.) as executed at their subsidiary, Cerep SA (Le Bois l'Eveque, France). The readout is the amount of cAMP generated in the cells treated with the test compounds, in either agonist or antagonist mode. The assays used were the mu opioid receptor cellular assay (MOP in agonist and antagonist mode), the delta2 opioid receptor cellular assay (DOP in agonist and antagonist mode) and the kappa opioid receptor cellular assay (KOP in agonist and antagonist mode). The assays used are described in Wang, J. B., et al. (1994) FEBS Lett 338: 217-222, Law, P. Y. and Loh, H. H. (1993) Mol Pharmacol 43: 684-693, and Avidor-Reiss, T., et al. (1995) FEBS Lett 361: 70-74. The stimulant for the cells in the DOR antagonist assay was 3×10E-8M DPDPE, a well-accepted DOR literature standard.

delta2 opioid receptor = target: T2, delta2 opioid receptor (Mus musculus, UniProt P32300); assay: delta2 opioid receptor cellular assay (DOP, agonist and antagonist mode), cAMP readout, Cerep; type: cell-based; conditions: in competition with 30 nM DPDPE
T2 construct: Cerep SA (contract research organization)
Description: as §1

T1 sequence (P35372 whole entry): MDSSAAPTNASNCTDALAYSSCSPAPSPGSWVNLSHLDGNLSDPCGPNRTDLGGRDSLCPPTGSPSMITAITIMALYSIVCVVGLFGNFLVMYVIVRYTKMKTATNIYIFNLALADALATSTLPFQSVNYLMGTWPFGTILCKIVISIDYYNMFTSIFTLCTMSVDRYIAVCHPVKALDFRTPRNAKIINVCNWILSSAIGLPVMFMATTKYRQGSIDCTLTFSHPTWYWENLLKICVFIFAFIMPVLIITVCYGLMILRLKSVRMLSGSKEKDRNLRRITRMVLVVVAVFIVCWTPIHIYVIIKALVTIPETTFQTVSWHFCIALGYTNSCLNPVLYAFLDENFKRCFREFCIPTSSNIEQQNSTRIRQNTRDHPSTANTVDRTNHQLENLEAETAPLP
T2 sequence (P32300 whole entry): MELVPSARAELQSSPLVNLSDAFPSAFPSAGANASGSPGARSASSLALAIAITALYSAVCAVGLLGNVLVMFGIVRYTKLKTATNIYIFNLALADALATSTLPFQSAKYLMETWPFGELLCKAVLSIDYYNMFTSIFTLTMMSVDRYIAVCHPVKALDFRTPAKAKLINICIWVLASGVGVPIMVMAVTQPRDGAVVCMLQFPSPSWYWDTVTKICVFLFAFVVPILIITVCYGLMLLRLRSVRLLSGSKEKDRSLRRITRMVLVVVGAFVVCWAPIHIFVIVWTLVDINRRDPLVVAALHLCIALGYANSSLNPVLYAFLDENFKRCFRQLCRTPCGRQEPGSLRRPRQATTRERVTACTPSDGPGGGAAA

2′,6′-dimethyl-L-tyrosyl-L-1,2,3,4-tetrahydroisoquinoline-3-carbonyl-L-phenylalanyl-Nε-(1′-methyl R-D-glucuronyl)-L-lysyl-amide [EU-A178]
behavior in the MOP agonist assay (FIG. 11) (mu opioid receptor): potent, full agonistic behavior
Characterization (mu opioid receptor; MOP agonist mode and DOP antagonist mode): Pure MOP Ag; pure DOP antag
action on the DOP receptor (FIG. 11) (delta2 opioid receptor): highly potent action as a pure antagonist
